Reference: ChEMBL document CHEMBL5154923 (J Med Chem, 2022)
Activity calls are given as the source filed them. The rule behind the calls is not given here.

Tests used:
[1] = target: T1, Serine/threonine-protein kinase 17A (Homo sapiens) (UniProt Q9UEE5); assay: Binding affinity to human N-terminal His-tagged/ TEV cleavage fused DRAK1 (39 to 369 residues) expressed in Escherichia coli assessed as change in melting temperature at 10 uM by SYPRO orange dye based DSF assay
T1 sequence (whole entry): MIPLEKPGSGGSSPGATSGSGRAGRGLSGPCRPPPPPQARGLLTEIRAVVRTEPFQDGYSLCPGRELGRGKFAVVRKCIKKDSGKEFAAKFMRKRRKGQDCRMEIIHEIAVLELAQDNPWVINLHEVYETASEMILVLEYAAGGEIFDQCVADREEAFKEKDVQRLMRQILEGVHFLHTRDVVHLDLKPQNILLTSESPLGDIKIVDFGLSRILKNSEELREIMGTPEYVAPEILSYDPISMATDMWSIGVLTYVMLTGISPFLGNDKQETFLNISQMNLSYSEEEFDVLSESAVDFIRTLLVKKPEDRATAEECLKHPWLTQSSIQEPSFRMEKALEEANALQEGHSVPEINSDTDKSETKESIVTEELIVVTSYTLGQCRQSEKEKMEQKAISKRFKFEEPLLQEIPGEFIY

[2] = target: T2, Serine/threonine-protein kinase 17A (Homo sapiens, UniProt Q9UEE5); assay: Inhibition of human N-terminal His-tagged/ TEV cleavage fused DRAK1 (39 to 369 residues) transfected in HEK293T cells using NanoBRET NanoGlo as substrate incubated for 2 hrs by NanoBRET assay; format: cell-based
T2 sequence (Q9UEE5 whole entry): T1 sequence (whole entry)

[3] = Binding affinity to wild type full length human CK2alpha2 (1 to 350 residues) expressed in mammalian expression system assessed as change in melting temperature by SYPRO orange dye based DSF assay
[4] = target: Casein kinase II subunit alpha (Homo sapiens, UniProt P68400); assay: Binding affinity to wild type full length human CK2alpha1 (1 to 391 residues) expressed in mammalian expression system assessed as change in melting temperature at 10 uM by SYPRO orange dye based DSF assay
Sequence of Casein kinase II subunit alpha (P68400 whole entry, looked up, the tested form may be a part): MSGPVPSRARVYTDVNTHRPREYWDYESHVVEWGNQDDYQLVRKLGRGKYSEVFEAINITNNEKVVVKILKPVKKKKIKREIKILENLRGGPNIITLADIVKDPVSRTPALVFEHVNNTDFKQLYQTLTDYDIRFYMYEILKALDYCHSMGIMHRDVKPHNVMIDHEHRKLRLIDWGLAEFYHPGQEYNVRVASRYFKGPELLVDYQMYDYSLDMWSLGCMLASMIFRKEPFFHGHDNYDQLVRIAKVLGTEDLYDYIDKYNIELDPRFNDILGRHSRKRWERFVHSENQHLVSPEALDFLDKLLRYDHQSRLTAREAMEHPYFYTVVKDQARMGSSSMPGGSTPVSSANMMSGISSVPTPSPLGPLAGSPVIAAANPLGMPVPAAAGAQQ

[5] = target: T2, Serine/threonine-protein kinase 17A; assay: Inhibition of human N-terminal His-tagged/ TEV cleavage fused DRAK1 (39 to 369 residues) expressed in Escherichia coli using KKLNRTLSFAEPG peptide as substrate in presence of [gamma-33P]ATP by radiometric based scintillation proximity assay
LN-229 = assay: Antiproliferative activity against human LN-229 cells assessed as reduction in cell viability after 1 to 7 days by resazurin dye based fluorimetric analysis; format: functional
T98G [6] = assay: Antiproliferative activity against human T98G cells assessed as reduction in cell viability measured after 1 to 7 days by resazurin dye based fluorimetric analysis; format: functional
[7] = Cytotoxicity against human MRC9 cells assessed as increase in total apoptotic cells incubated for 36 hrs by Annexin V staining based method; format: toxicity, cell-based
HEK-293T [8] = assay: Cytotoxicity against human HEK293T cells at 1 uM incubated for 36 hrs; format: toxicity, cell-based
[9] = Cytotoxicity against human HEK293T cells assessed as increase in total apoptotic cells incubated for 36 hrs by Annexin V staining based method; format: toxicity, cell-based, HEK-293T
[10] = Induction of morphological changes in human MRC9 cells assessed as mitochondrial damage at 1 to 10 uM incubated for 18 hrs by confocal fluorescence microscopic analysis; format: toxicity, cell-based; details: mrc9, 18 h, dose 1-10 µM
HEK-293T [11] = assay: Cytotoxicity against human HEK293T cells assessed as increase in total apoptotic cells at 10 uM incubated for 18 hrs by Annexin V staining based method; format: toxicity, cell-based
HEK-293T [12] = assay: Induction of morphological changes in human HEK293T cells assessed as mitochondrial damage at 1 to 10 uM incubated for 18 hrs by confocal fluorescence microscopic analysis; format: toxicity, cell-based; details: dose 1-10 µM
[13] = Induction of morphological changes in human MRC9 cells assessed as microtubule damage at 1 to 10 uM incubated for 18 hrs by confocal fluorescence microscopic analysis; format: toxicity, cell-based; details: mrc9, 18 h, dose 1-10 µM
[14] = target: T1, Serine/threonine-protein kinase 17A (Homo sapiens); assay: Inhibition of human N-terminal His-tagged/ TEV cleavage fused DRAK1 (39 to 369 residues) expressed in Escherichia coli assessed as change in entropy by isothermal titration calorimetry
HEK-293T [15] = assay: Cytotoxicity against human HEK293T cells assessed as increase in total apoptotic cells at 10 uM incubated for 36 hrs by Annexin V staining based method; format: toxicity, cell-based
[16] = Cytotoxicity against human MRC9 cells at 1 uM incubated for 36 hrs; format: toxicity, cell-based; details: mrc9, 36 h
[17] = target: T2, Serine/threonine-protein kinase 17A; assay: Binding affinity to human N-terminal His-tagged/ TEV cleavage fused DRAK1 (39 to 369 residues) expressed in Escherichia coli by isothermal titration calorimetry
LN-18 = assay: Antiproliferative activity against human LN-18 cells assessed as reduction in cell viability after 1 to 7 days by resazurin dye based fluorimetric analysis; format: functional
HEK-293T [18] = assay: Induction of morphological changes in human HEK293T cells assessed as microtubule damage at 1 to 10 uM incubated for 18 hrs by confocal fluorescence microscopic analysis; format: toxicity, cell-based; details: dose 1-10 µM
T98G [19] = assay: Induction of morphological changes in human T98G cells assessed as change in cell shape at 12.5 uM incubated for 5 days by microscopy analysis; format: functional, cell-based; details: time 5.0 day
U2OS [20] = assay: Cytotoxicity against human U2OS cells assessed as increase in total apoptotic cells at 10 uM incubated for 36 hrs by Annexin V staining based method; format: functional, cell-based
[21] = target: T1, Serine/threonine-protein kinase 17A (Homo sapiens); assay: Inhibition of human N-terminal His-tagged/ TEV cleavage fused DRAK1 (39 to 369 residues) expressed in Escherichia coli assessed as gibbs free energy change by isothermal titration calorimetry
U2OS [22] = assay: Cytotoxicity against human U2OS cells assessed as increase in total apoptotic cells incubated for 36 hrs by Annexin V staining based method; format: functional, cell-based
HEK-293T [23] = assay: Cytotoxicity against human HEK293T cells at 1 uM incubated for 18 hrs; format: toxicity, cell-based
[24] = target: T1, Serine/threonine-protein kinase 17A (Homo sapiens); assay: Inhibition of human N-terminal His-tagged/ TEV cleavage fused DRAK1 (39 to 369 residues) expressed in Escherichia coli assessed as change in enthalpy by isothermal titration calorimetry
[25] = Cytotoxicity against human MRC9 cells assessed as increase in total apoptotic cells at 10 uM incubated for 36 hrs by Annexin V staining based method; format: toxicity, cell-based; details: mrc9, 36 h
D-247MG = assay: Antiproliferative activity against human D-247MG cells assessed as reduction in cell viability after 1 to 7 days by resazurin dye based fluorimetric analysis; format: functional

CC(NC(=O)c1ccc2cc1OCCOCCNc1ccn3ncc-2c3n1)c1ccccc1 (stereo not given)
ΔTm [1]: 12.1 °C | IC50 [2]: 71 nM | ΔTm [3]: 1.9 °C | ΔTm [4]: -0.9 °C | IC50 [5]: 31 nM

C[C@H](NC(=O)c1ccc2cc1OCCOCCNc1ccn3ncc-2c3n1)c1ccncc1
EC50 (LN-229): 2200 nM | EC50 (T98G [6]): 2340 nM | EC50 at 36 h [7]: > 10000 nM | ΔTm [1]: 12.3 °C | Activity (HEK-293T [8]): Non-Toxic | EC50 at 36 h [9]: > 10000 nM | Activity [10]: Non-Toxic | Activity (HEK-293T [11]): Toxic | Activity (HEK-293T [12]): Non-Toxic | IC50 [2]: 70 nM | Activity [13]: Non-Toxic | deltaS [14]: 11.6 cal/mol.K | Activity (HEK-293T [15]): Toxic | Activity [16]: Non-Toxic | Kd [17]: 9 nM | ΔTm [3]: 0.1 °C | ΔTm [4]: 1.2 °C | EC50 (LN-18): 1970 nM | Activity (HEK-293T [18]): Non-Toxic | Activity (T98G [19]): Active | Activity (U2OS [20]): Active | deltaG [21]: -10.1 kcal/mol | EC50 (U2OS [22]): > 10000 nM | Activity (HEK-293T [23]): Non-Toxic | deltaH [24]: -6.78 kcal/mol | IC50 [5]: 15 nM | Activity [25]: Toxic | EC50 (D-247MG): 1250 nM

CN1CCN(C(=O)c2ccc3cc2OCCOCCNc2ccn4ncc-3c4n2)CC1
IC50 [2]: > 45000 nM | ΔTm [3]: 0.9 °C | ΔTm [4]: 0.3 °C

O=C(c1ccc2cc1OCCOCCNc1ccn3ncc-2c3n1)N1CCOCC1
ΔTm [1]: 3 °C | IC50 [2]: > 45000 nM | ΔTm [3]: 2.5 °C | ΔTm [4]: 1.1 °C
